Where “and” joins values, the source holds several entries; their conditions need not be identical. Equal values may be shown once. Entries after “also recorded” stand apart in the source; their conditions may differ.
What was measured:
[1] = test system: gentamicin-induced acute kidney injury; test: Gentamicin-induced acute kidney injury model in rats (Example 1); format: in vivo, male Wistar rats; settings: Compound I 3 mg/kg i.p. before gentamicin 100 mg/kg i.p. daily
Experimental: Efficacy of the compound of Compound I against gentamicin-induced acute kidney injury was tested in a model study with male Wistar rats (180-220 g) randomly grouped based on body weights. Three groups formed part of the study: control, vehicle, and compound I (see Table I). Except for the control group, gentamicin (100 mg/kg) was given by intraperitoneal injection for 10 consecutive days, once daily from Day 1 to Day 10. The first day of gentamicin injection was designated as Day 1 of the study.
The vehicle, or the Compound I formulated in the vehicle was administered intraperitoneally (i.p.) for 10 days, from Day 1 to Day 10 of the study (total 11 times). On initiation of the experiment (Day 1), Compound I (3 mg/kg) was administered by i.p. injection 6 h, and 1 h before the gentamicin injection. Thereafter, on Day 2 to Day 10, Compound I was administered once daily (3 mg/kg) 1 h prior to the gentamicin injection. Body weights of the rats were recorded daily. On the day 10, the animals were euthanized and blood sample was collected via cardiac punction. Serum was collected and stored at −80° C. for kidney function analysis of blood urea nitrogen (BUN) and creatinine.

[2] = test system: gentamicin-induced acute kidney injury; test: Gentamicin-induced acute kidney injury model in rats, pathology and dose response (Example 2); format: in vivo; settings: Compound I 0.5, 3, 9 mg/kg i.p.
Experimental: A further study in rats was carried out essentially in analogy to the general study protocol described in Example 1, to further assess the efficacy and impact of Compound I against gentamicin-induced acute kidney injury and to test the dose response. The tissue pathology, as well as the additional biomarkers were assessed.
Five groups formed part of the study (See Table 2): control (Group 1), vehicle (Group 2), and animals receiving Compound I at doses of 0.5 mg/kg (Group 3), 3 mg/kg (Group 4) and 9 mg/kg (Group 5). Except for the control Group 1, gentamicin (100 mg/kg) was given by intraperitoneal injection for 10 consecutive days, once daily from Day 1 to Day 10.
The vehicle, or Compound I formulated in the vehicle was administered intraperitoneally (i.p.) for 10 days, from Day 1 to Day 10 of the study (total 11 times). On initiation of the experiment (Day 1), Compound I at the specified dose amounts was administered by i.p. injection 6 h, and 1 h before the gentamicin injection to the animals in groups 3, 4 and 5. Thereafter, on Day 2 to Day 10, Compound I was administered once daily at the specified dose to said study groups, approximately 1 h prior to the gentamicin injection. On day 10, the rats were euthanized. Blood samples were collected, and the kidney tissues (both left and right kidneys) of the rats were also taken for H&E staining. Histopathological evaluation was performed on the kidney sections using standard methods and scoring criteria in the art to assess the level of tissue damage caused by the gentamicin-induced acute kidney injury. The kidney sections were assessed and scored for: necrosis of renal tubules, tubular dilation, loss of tubular brush border, cast formation in the renal tubules, and interstitial inflammatory cell (neutrophil) infiltration. The scoring was performed on a scale of 0 to 4 (0=0% i.e. no observation, 1≤5%, 2=5-25%, 3=25-50%, 4≥50% i.e. extensive, severe, or widely visible damage) on both left and right kidney tissues. The scoring was accumulated to provide a total combined score.
Kidney function analysis based on blood urea nitrogen (BUN) and creatinine in the serum was performed. Assay in plasma for biomarkers NGAL (neutrophil gelatinase-associated lipocalin) and Kim-1 (kidney injury molecule-1) was also determined.

[3] = test system: rhabdomyolysis-induced acute kidney injury; test: Rhabdomyolysis-induced (glycerine) acute kidney injury model in rats (Example 3); format: in vivo, male SD rats; settings: Compound I 3 mg/kg IP at 6 h and 1 h prior to glycerine, kidneys after 48 h, Group 3, Mean (SEM)
Experimental: The efficacy of Compound I in protection against rhabdomyolysis-induced acute kidney injury was tested in a model study in male SD rats. The acute kidney injury model was induced in the rats by bilateral intra-muscular injection of 50% Glycerine (at a dose volume of 10 ml/kg body weight, divided into two sites of injection at each limb). Glycerine induces physiological conditions which are closely associated with rhabdomyolysis, such as myoglobinuria, tubular necrosis, and renal vasoconstriction.
Three groups formed part of the study: sham, vehicle, and compound I. Except for the sham group, where no glycerine was injected, animals were dosed twice intraperitoneally with either Compound I or Vehicle: at 6 h and at 1 h prior to receiving the glycerine injection (see Table 3).
After 48 h, the animals were euthanized, and their right and left kidneys were fixed in formalin 10%. Each kidney was cut longitudinally into 2 halves, both placed in a cassette and processed in paraffin. Sections were cut and stained using Hematoxylin and Eosin (H&E). The kidney sections were examined and histopathological analysis and scoring was performed for tubular, endothelial, glomerular and tubulointerstitial damage based on scoring systems in the art (e.g. Khalid U. et al, Journal of Histology & Histopathology. Volume 3, Article 1. 2016). Tubular epithelial necrosis scoring was based on the total number of tubules in the outer stripe of the outer medulla (OSOM). Tubulointerstitial damage was scored as a total percentage of the entire tissue observed in the section. The scores of each parameter were also added to provide a total histopathological score.
Table 4 summarizes the histopathology scoring results for the test groups sham (Group 1), vehicle (Group 2) and compound I (Group 3). All data are presented as Mean±SEM. All treatment groups were compared to the sham group (Group 1) or to the vehicle group (Group 2) using Student's T-Test. A p value <0.05 is considered to represent a significant difference.

[4] = especially G4 and G5, versus G2 vehicle
[5] = gentamicin 100 mg/kg daily, Day 10, versus G2 vehicle
[6] = gentamicin 100 mg/kg daily, Day 10, versus Group 2 vehicle

For `C/C=C/C[C@@H](C)[C@@H](O)[C@H]1C(=O)N[C@@H](CC)C(=O)N(C)[C@H](OCCN(C)C)C(=O)N(C)[C@@H](CC(C)C)C(=O)N[C@@H](C(C)C)C(=O)N(C)[C@@H](CC(C)C)C(=O)N[C@@H](C)C(=O)N[C@H](C)C(=O)N(C)[C@@H](CC(C)C)C(=O)N(C)[C@@H](CC(C)C)C(=O)N(C)[C@@H](C(C)C)C(=O)N1C` [Compound I, [(R)-2′ (2-dimethylaminoethoxy)-Sar]^3 cyclosporin A], the “rate of body weight gain over the 10-day study period (FIG. 1A)” value ([1]; Day 1-10, versus vehicle group) was “faster rate of body weight gain”, the “overall body-weight change from baseline measurement on Day 1 (FIG. 1B)” value ([1]; Day 1 to Day 10, versus vehicle group) was “higher compared to the rats only treated with vehicle” and the “serum blood urea nitrogen (BUN) level at endpoint (FIG. 2)” value ([1]; Day 10 serum) was “lower, compared to levels determined for the vehicle group; also recorded: comparable or similar levels as measured for the control group”. For the same compound, the “serum creatinine level at endpoint (FIG. 3)” value ([1]; Day 10 serum) was “lower, compared to levels determined for the vehicle group; also recorded: comparable or similar levels as measured for the control group”, the “total acute kidney injury pathology scoring of kidney tissue (FIG. 4A)” value ([2]; especially 3 and 9 mg/kg groups, gentamicin 100 mg/kg daily, Day 10, versus G2 vehicle) was “statistically significant impact in terms of generally reducing the severity of physical injury” and the “KIM-1 biomarker level in plasma at endpoint (FIG. 7)” value [2, 4] was “statistically relevant reduced levels”. The “NGAL biomarker level in plasma at endpoint (FIG. 8)” value [2, 4] was “statistically relevant reduced levels”, the “severity of neutrophil infiltration (FIG. 4B)” value [2, 5] was “markedly reduced” and the “severity of tubular dilation (FIG. 4B)” value [2, 5] was “markedly reduced”. For the same compound, the “serum BUN level at endpoint (FIG. 6)” value [2, 6] was “lower”, the “serum creatinine level at endpoint (FIG. 5)” value [2, 6] was “lower” and the “ED (Endothelial damage) score, Mean” value [3] was 0.00 a.u. The “GD (Glomerular damage) score, Mean” value [3] was 0.00 a.u, the “TD (Tubular Damage) score, Mean” value [3] was 1.10±0.07 a.u. and 1.10## a.u and the “TID (Tubulointersititial damage) score, Mean” value ([3]; p<0.01 vs. vehicle) was 1.15±0.08 a.u. and 1.15##** a.u. For the same compound, the “Total Histopathological Score, Mean” value ([3]; p<0.01 vs. vehicle) was 2.15±0.08 a.u. and 2.15##** a.u.

Source: patent publication US12350310B2, “Treatment and prevention of nephrotoxin-induced kidney injuries” (Farsight Medical Technology (Shanghai) Co., Ltd., priority 2019, dated 2025)
